Data taken from patent publication US20110177161A1, “PHARMACEUTICAL COMPOSITIONS OF [5(S)-(2'-HYDROXYETHOXY)-20(S)-CAMPTOTHECIN” (DR. REDDY'S LABORATORIES LIMITED, priority 2007, published 2011).

Experiments:
[1] = test system: NCl-H460 (human small cell lung carcinoma) xenografts; experiment: NCl-H460 xenograft study in nude mice; details: oral, (d×5)2 schedule
Method: To perform the NCl-H460 xenograft study, NCl-H460 tumor pieces measuring ~60 mm^3 were implanted in the space of dorsal lateral flanks of female athymic nude mice to initiate tumor growth. When the tumors were grown to ~150-1000 mm^3, animals were randomized into groups of five prior to initiating therapy. […] Each gram of placebo was formulated to contain 895.2 mg hydroxylpropyl beta cyclodextran, 89.52 mg dextrose anhydrous and 14.9 mg sodium carbonate. Each formulation was dissolved in 2 ml sterile water and administered through oral route in a (d×5)2 schedule. Tumor diameters were measured twice a week using a vernier caliper.
Tumor volumes were calculated assuming tumors to be ellipsoid using the formula: V=(D×d^2)/2, where V (mm^3) is tumor volume, D is longest diameter in mm and d is shortest diameter in mm. Change in tumor volumes (Δ) for each treated (T) and control (C) group were calculated by subtracting the mean tumor volume on the first day of treatment (starting day) from the mean tumor volume on the specified observation day. These values were used to calculate a percentage growth (% T/C) using the formulas:
Percentage tumor growth inhibition (% TGI) was then calculated using the formula: % TGI=100−% TC.
All of the mice bearing subcutaneous tumors measuring approximately 150-800 mm^3 were treated with test compound through oral gavage using a (d×5)2 schedule. Tumor diameters were measured twice in a week using vernier calipers and tumor volumes were calculated assuming tumors to be ellipsoid using the formula V=(D×d^2)/2 where V (mm^3) is tumor volume, D is longest diameter in mm., and d is shortest diameter in mm. Changes in tumor Volumes (Δ volumes) for each treated (T) and control (C) group are calculated, by subtracting the mean tumor volume on the first day of treatment (starting day) from the mean tumor volume of on the specified observation day. These values are used to calculate a percentage growth (% T/C) using the formula: […]
Tumor regressions are defined as partial if the tumor volume decreases to 50% or less of the tumor volume at the start of the treatment without dropping below to 63 mm^3. Complete regression is defined if the tumor volume drops to below measurable limits (<63 mm^3).
The percentage body weight change in comparison to starting day body weight of each animal was calculated using the formula: Percentage Body weight change=[(Body weight on specified observation day-Body weight on starting day)/Body weight on starting day]×100.
The other parameter observed was mortality.

[2] = test system: Osteosarcoma-32 xenograft; experiment: Osteosarcoma tumor regression model; assay type: in vivo, mice; design: key: 6+: Maintained Complete Regression; 5+: Complete Regression; 4+: Partial Regression; 3+: Stable Disease; details: 28 mg/kg oral gavage, [(d×5)2]3 schedule
Method: (§1) This test was carried out with the use of the methods described in Cancer, Res., Oct. 15, 64:20:7491-9 (2004), and in Clin. Cancer Res., Nov. 15:9 (15):5442-53 (2003).
(§2) All mice bearing subcutaneous (“Sc”) tumors measuring approximately 0.2-1 cm in diameter were treated with a test compound by oral gavage using [(d×5)2]3 schedule. […] The tumor response to the test compound was defined as follows: For individual tumors, partial regression (“PR”) was defined as a volume regression >50%, but with measurable tumor at all times. Complete regression (“CR”) was defined as disappearance of measurable tumor mass at some point within 12 weeks after initiation of therapy. Maintained CR is defined as no tumor re-growth within a 12-week study time frame. This time point was chosen because all studies lasted at least 12 weeks. Mice that died before the end of the 12-week study time, and prior to achieving a response, were considered as failures for tumor response.

Osteosarcoma-2 xenograft = experiment: Osteosarcoma tumor regression model; assay type: in vivo, mice; design: key: 6+: Maintained Complete Regression; 5+: Complete Regression; 4+: Partial Regression; 3+: Stable Disease; details: 28 mg/kg oral gavage, [(d×5)2]3 schedule
Method: as §1, §2

[3] = test system: Osteosarcoma-29 xenograft; experiment: Osteosarcoma tumor regression model; assay type: in vivo, mice; design: key: 6+: Maintained Complete Regression; 5+: Complete Regression; 4+: Partial Regression; 3+: Stable Disease; details: 28 mg/kg oral gavage, [(d×5)2]3 schedule
Method: as §1, §2

[4] = test system: Osteosarcoma-17 xenograft; experiment: Osteosarcoma tumor regression model; assay type: in vivo, mice; design: key: 6+: Maintained Complete Regression; 5+: Complete Regression; 4+: Partial Regression; 3+: Stable Disease; details: 28 mg/kg oral gavage, [(d×5)2]3 schedule
Method: as §1, §2

[5] = Storage stability of powder composition and capsules (HPLC impurities, assay); assay type: physicochemical; details: Table 13; E* (S-isomer)
Method: Samples are analyzed by HPLC using a Chiralcel OD-H 250×4.6 mm column with a 5 μm particle size, at a wavelength of 257 nm using a variable wavelength UV detector, and a mobile phase comprising buffer (0.01 M KH2PO4; pH 3.0±0.1): acetonitrile (68:32% v/v), flow rate 1 ml/minute.
For the determination of the R-isomer impurity in the compositions, conditions essentially similar to the ones described above are used. The mobile phase comprises buffer (pH 3.0±0.1): acetonitrile (76:24% v/v).
For impurities other than the R-isomer the HPLC analysis comprises a Waters HPLC system equipped with a variable wavelength UV detector using symmetry C18, 250 column with a 5 μm particle size, at a wavelength of 257 nm, column temperature of 40° C. The mobile phase comprises
The capsules of Example 9B were charged for stability for about 3 months at different temperature conditions such as 2-8° C., 25° C. and the samples were analyzed by an HPLC procedure described above.
The powder composition of Example 13 was filled in amber coloured glass vials and sealed. Both initial sample and samples exposed at 25° C./60% RH (relative humidity), 30° C./65% RH, 40° C./75% RH for period of 3 days were analyzed for impurities by using HPLC as per the process described above.
The capsules have been exposed at 25° C./60% RH, 30° C./65% RH and 40° C./75% RH for a period of 3 months and data has been tabulated in Table 13.
The capsules packed in HDPE containers were exposed to different stability conditions such as 40° C./75% RH, 30° C./65% RH, 25° C./60% RH, 2-8° C. for about 6-12 months.

CC[C@@]1(O)C(=O)OCc2c1cc1n(c2=O)C(OCCO)c2cc3ccccc3nc2-1 (mixture of isomers) [5(RS)-(2′-hydroxyethoxy)-20(S)-camptothecin, reference compound]
% Tumor Growth Inhibition ([1]; Dose 2 mg/kg): 60% | Mortality ([1]; Dose 2 mg/kg): 0/5 | % Tumor Growth Inhibition ([1]; Dose 4 mg/kg): 64% | Mortality ([1]; Dose 4 mg/kg): 0/5 | Tumor response [2]: 3+ | Tumor response (Osteosarcoma-2 xenograft): 5+ | Tumor response [3]: 5+ | Tumor response [4]: 4+

CC[C@@]1(O)C(=O)OCc2c1cc1n(c2=O)[C@@H](OCCO)c2cc3ccccc3nc2-1 [DRF-(5S,20S)-1042, 5(S)-(2′-hydroxyethoxy)-20(S)-camptothecin]
A = DRF (5R,20S)-1042 [5]: 1.11 % Peak Area | B = Decarboxylated impurity [5]: 0.02 % Peak Area | C = Dimer impurity [5]: 0.35 % Peak Area | D = Total impurities excluding DRF (5R,20S)-1042 [5]: 0.96 % Peak Area | % Tumor Growth Inhibition ([1]; Dose 2 mg/kg): 68% | Mortality ([1]; Dose 2 mg/kg): 0/5 | % Tumor Growth Inhibition ([1]; Dose 4 mg/kg): 76% | Mortality ([1]; Dose 4 mg/kg): 0/5 | Tumor response [2]: 6+ | Tumor response (Osteosarcoma-2 xenograft): 6+ | Tumor response [3]: 6+ | Tumor response [4]: 6+
